Each molecule was assayed on Aphis craccivora (assay: Insecticidal activity against Aphis craccivora (cowpea aphid) infested tender soybean shoots exposed to compound solution assessed as insect mortality measured 24 hr post compound treatment (reference value: 4.1%)).
Format: functional
N#CC1(C#N)C(c2ccco2)C([N+](=O)[O-])=C2N(Cc3ccc(Cl)nc3)CCN2C1c1ccc(Cl)cc1C(F)(F)F (configuration not stated) gave an LC50 of 87.2 µM. With Cc1ccc(C2N3CCN(Cc4ccc(Cl)nc4)C3=C([N+](=O)[O-])C(c3ccco3)C2(C#N)C#N)c(F)c1 (configuration not stated) the LC50 was 5.52 µM. N#CC1(C#N)C(c2ccco2)C([N+](=O)[O-])=C2N(Cc3ccc(Cl)nc3)CCN2C1c1cc(C(F)(F)F)ccc1F (configuration not stated) gave an LC50 of 113 µM. For N#CC1(C#N)C(c2ccco2)C([N+](=O)[O-])=C2N(Cc3ccc(Cl)nc3)CCN2C1c1ccc(C(F)(F)F)c(F)c1 (configuration not stated), the LC50 was 87.4 µM. In the case of O=[N+]([O-])/N=C1\NCCN1Cc1ccc(Cl)nc1 [IMIDACLOPRID], the LC50 is reported as 35 µM.

The molecules below were run on Aphis craccivora (assay: Insecticidal activity against Aphis craccivora (cowpea aphid) infested tender soybean shoots exposed to 500 mg/L compound solution assessed as insect mortality measured 24 hr post compound treatment (reference value: 4.1%)).
Format: functional
Work on N#CC1(C#N)C(c2ccco2)C([N+](=O)[O-])=C2N(Cc3ccc(Cl)nc3)CCN2C1c1ccc(OC(F)(F)F)c(Cl)c1 (configuration not stated) yielded a mortality of 0%. In the case of N#CC1(C#N)C(c2ccco2)C([N+](=O)[O-])=C2N(Cc3ccc(Cl)nc3)CCN2C1c1ccc(Cl)cc1Cl (configuration not stated), the mortality is reported as 85.9%. Work on Cc1ccc(C2N3CCN(Cc4ccc(Cl)nc4)C3=C([N+](=O)[O-])C(c3ccco3)C2(C#N)C#N)cc1 (configuration not stated) yielded a mortality of 0%. For Cc1ccc(F)c(C2N3CCN(Cc4ccc(Cl)nc4)C3=C([N+](=O)[O-])C(c3ccco3)C2(C#N)C#N)c1 (configuration not stated), the mortality was 73.9%. Molecule N#CC1(C#N)C(c2ccco2)C([N+](=O)[O-])=C2N(Cc3ccc(Cl)nc3)CCN2C1c1cccc(Br)c1 (configuration not stated) has a mortality of 75.8%. COc1ccc(C2N3CCN(Cc4ccc(Cl)nc4)C3=C([N+](=O)[O-])C(c3ccco3)C2(C#N)C#N)cc1 (configuration not stated) showed a mortality of 0%. N#CC1(C#N)C(c2ccco2)C([N+](=O)[O-])=C2N(Cc3ccc(Cl)nc3)CCN2C1c1cccc([N+](=O)[O-])c1 (configuration not stated) was tested, and the mortality was 0%. For N#CC1(C#N)C(c2ccco2)C([N+](=O)[O-])=C2N(Cc3ccc(Cl)nc3)CCN2C1c1ccc([N+](=O)[O-])cc1 (configuration not stated), the mortality was 0%. For N#CC1(C#N)C(c2ccco2)C([N+](=O)[O-])=C2N(Cc3ccc(Cl)nc3)CCN2C1c1ccc(Cl)cc1C(F)(F)F (configuration not stated), the mortality was 100%. Molecule N#Cc1ccc(C2N3CCN(Cc4ccc(Cl)nc4)C3=C([N+](=O)[O-])C(c3ccco3)C2(C#N)C#N)cc1 (configuration not stated) has a mortality of 0%. With Cc1ccc(F)cc1C1N2CCN(Cc3ccc(Cl)nc3)C2=C([N+](=O)[O-])C(c2ccco2)C1(C#N)C#N (configuration not stated) the mortality was 0%. For N#Cc1cccc(C2N3CCN(Cc4ccc(Cl)nc4)C3=C([N+](=O)[O-])C(c3ccco3)C2(C#N)C#N)c1 (configuration not stated), the mortality was 0%. N#CC1(C#N)C(c2ccco2)C([N+](=O)[O-])=C2N(Cc3ccc(Cl)nc3)CCN2C1c1ccc(Br)cc1Cl (configuration not stated) was tested, and the mortality was 0%. N#CC1(C#N)C(c2ccco2)C([N+](=O)[O-])=C2N(Cc3ccc(Cl)nc3)CCN2C1c1ccc(F)cc1 (configuration not stated) was tested, and the mortality was 64.21%. N#CC1(C#N)C(c2ccco2)C([N+](=O)[O-])=C2N(Cc3ccc(Cl)nc3)CCN2C1c1ccc(Cl)cc1F (configuration not stated) showed a mortality of 56.7%. With N#CC1(C#N)C(c2ccco2)C([N+](=O)[O-])=C2N(Cc3ccc(Cl)nc3)CCN2C1c1cccc(F)c1F (configuration not stated) the mortality was 48.8%. N#CC1(C#N)C(c2ccco2)C([N+](=O)[O-])=C2N(Cc3ccc(Cl)nc3)CCN2C1c1ccc(OC(F)(F)F)cc1 (configuration not stated) was tested, and the mortality was 0%. Molecule Cc1ccc(C2N3CCN(Cc4ccc(Cl)nc4)C3=C([N+](=O)[O-])C(c3ccco3)C2(C#N)C#N)c(F)c1 (configuration not stated) has a mortality of 100%. With N#CC1(C#N)C(c2ccco2)C([N+](=O)[O-])=C2N(Cc3ccc(Cl)nc3)CCN2C1c1cc(C(F)(F)F)ccc1F (configuration not stated) the mortality was 100%. With N#CC1(C#N)C(c2ccco2)C([N+](=O)[O-])=C2N(Cc3ccc(Cl)nc3)CCN2C1c1ccccc1 (configuration not stated) the mortality was 0%. N#CC1(C#N)C(c2ccco2)C([N+](=O)[O-])=C2N(Cc3ccc(Cl)nc3)CCN2C1c1ccc(C(F)(F)F)c(F)c1 (configuration not stated) gave a mortality of 96.8%. CN(C)c1ccc(C2N3CCN(Cc4ccc(Cl)nc4)C3=C([N+](=O)[O-])C(c3ccco3)C2(C#N)C#N)cc1 (configuration not stated) was tested, and the mortality was 0%.

From ChEMBL document CHEMBL3045280, “Designing Tetrahydroimidazo[1,2-a]pyridine derivatives via catalyst-free Aza-Diels-Alder reaction (ADAR) and their insecticidal evaluation” (2010)
